# Reference: patent EP3720857B1, “2-OXO-5H-CHROMENO[4,3-B]PYRIDINES FOR USE IN THE TREATMENT OF HEPATITIS B” (Galapagos NV, priority 2017, dated 2019)
# Test system: hepatitis virus B (HBV) infection
# Assay: HepG2 NTCP assay (HBcAg staining as marker of HBV infection)
# Type: cell-based
# Details: HepG2-NTCP cells infected with HBV, HBV core antigen (HBcAg) as marker of infection
# Excerpt: The principle of the hepG2-NTCP assay is to measure the effect of a test compound on the inhibition of the hepatitis virus B (HBV) infection compared to a reference compound. To be able to infect the hepatocellular carcinoma cells (HepG2) with HBV, HepG2 cells were stably transfected with the Na+-taurocholate co-transporting polypeptide (NTCP) receptor, also referred to as Sodium/bile acid cotransporter (SLC10A1), which is necessary for HBV infection. In this assay the HBV core antigen (HBcAg) is used as a marker of HBV infection. Nuclei count is used as an indication for compound toxicity.
# On day one, HepG2-NTCP cells ((Ni et al., 2014)) are seeded at 5000 cells in 50 µL per well in assay medium (DMEM high glucose supplemented with 10% non-heat inactivated (non HI) fetal bovine serum (FBS), 1% P/S, 1% L-glutamine and 1% MEM NEAA) in 384 well plate and incubated at 37°C, 5% CO2 overnight.
# Compounds are prepared as 10 point serial dilutions using 1/3 dilution steps in 100% DMSO starting from 10 mM highest concentration, unless otherwise requested for very potent compounds, which started from 5mM or 1mM stock. Compounds are further diluted 1/500 in assay medium.
# A negative control (vehicle: 24 wells with 0.2% DMSO) and positive control (24 wells with 100nM Myrcludex B (Cas no.: 406461-66-3), 0.2% DMSO and in 10 point DR) are included in the experiments.
# On the second day, 40µl medium is removed from the cells with the plate washer (Select 405 microplate washer, Biotek). 15 µL of diluted compound series is transferred to the assay plate and cells are infected with 15 µL of HBV mix (HBV virus, 4%PEG, 1%DMSO in assay medium). The infection is performed in assay medium containing final concentration of 1% DMSO. The assay plate is incubated at 37°C, 5% CO2 overnight.
# The next day, 30µl compound and HBV mix are removed from the assay plate with the plate washer and 30 µL of compound series diluted 1/500 in assay medium containing final concentration of 2.5% DMSO is added to the cell assay plate. The assay plate is incubated at 37°C, 5% CO2 for 5 days.
# After 5 days of incubation, supernatant is removed from the cells with the plate washer. Cells are fixed with 50 µL of 3.7% formaldehyde added with the Well mate (Matrix technologies) and incubated for 30 min at room temperature. After fixation, cells are washed four times with phosphate buffer saline (1xPBS, 137mM NaCl, 10mM na2HPO4, 2.7mM KCl, 1.8mM KH2PO4 at pH7.4). The cells are finally subjected to HBc staining.
# First, the assay plate is blocked with blocking buffer (2%FBS, 3% BSA, 0.2% TritonX100 in PBS) for 1 h at room temperature (optional to block overnight at 4°C).
# After 4 washes of PBST (1XPBS + 0.05% Tween) with the plate washer, the assay plate is incubated with 30 µL diluted primary antibody (1/700 Rabbit anti-HBV core antigen, Dako, B0586 or 1/350 Rabbit anti HBV core antigen, Invitrogen, PA516368) in blocking buffer and incubated for 90 min at room temperature.
# After 4 washes of PBST with the plate washer, the assay plate is incubated with 50 µL of secondary antibody (Donkey-anti-rabbit Alexa 488 antibody, Lifetechnologies A21206) 1/500 diluted in blocking buffer and incubated for 60 min at room temperature and in the dark.
# The assay plate is washed 4 times with PBST on the plate washer and incubated with 50µL of DAPI (Sigma D9542, stock 5mg/mL) 1/10000 diluted in PBS for 15-30 min at room temperature and in the dark. The assay plate is now ready for read out on the InCell Analyzer 2200 (GE Healthcare).
# Raw data are generated following read-out performed on InCell 2200 and are imported into the galapagos LIMS for automated calculation of percentage inhibition (PIN) and toxicity by nuclei count, using the control wells mentioned above, and creation of Dose Response curves. Table V. Hepg2 NTCP assay activity of illustrative compounds of the invention
row,SMILES,IC50 [nM]
1,"COCCCOc1ccc2c(c1Cl)OC(C(C)C)c1cc(C(=O)O)c(=O)n(C3CC3)c1-2 (stereo not drawn) [Compound 8, 7-chloro-1-cyclopropyl-5-isopropyl-8-(3-methoxypropoxy) -2-oxo-5H-chromeno[4,3-b]pyridine-3-carboxylic acid]",1 to 20
2,"COc1cc2c(cc1OC)-c1c(cc(C(=O)O)c(=O)n1C1CC1)C(C(C)(C)C)O2 (stereo not drawn) [Compound 9, 5-tert-butyl-1-cyclopropyl-8,9-dimethoxy-2-oxo-5H-chromeno[4,3-b]pyridine-3-carboxylic acid]",1 to 20
3,"COCCCOc1cc2c(cc1OC)-c1c(cc(C(=O)O)c(=O)n1C1CC1)C(C(C)C)O2 (stereo not drawn) [Compound 10, 1-cyclopropyl-5-isopropyl-9-methoxy-8-(3-methoxypropoxy) -2-oxo-5H-chromeno[4,3-b]pyridine-3-carboxylic acid]",1 to 20
4,"CCC1Oc2cc(OCCCOC)c(OC)cc2-c2c1cc(C(=O)O)c(=O)n2C1CC1 (stereo not drawn) [Compound 12, 1-cyclopropyl-5-ethyl-9-methoxy-8-(3-methoxypropoxy) -2-oxo-5H-chromeno[4,3-b]pyridine-3-carboxylic acid]",1 to 20
5,"COCCCOc1cc2c(cc1Cl)-c1c(cc(C(=O)O)c(=O)n1C1CC1)C(C)(C)O2 [Compound 14, 9-chloro-1-cyclopropyl-8-(3-methoxypropoxy) -5,5-dimethyl-2-oxo-chromeno [4,3-b]pyridine-3-carboxylic acid]",1 to 20
6,"CCC1Oc2cc(OC)c(OC)cc2-c2c1cc(C(=O)O)c(=O)n2C1CC1 (stereo not drawn) [Compound 15, 1-cyclopropyl-5-ethyl-8,9-dimethoxy-2-oxo-5H-chromeno[4,3-b]pyridine-3-carboxylic acid]",20 to 100
7,"COc1cc2c(cc1OC)-c1c(cc(C(=O)O)c(=O)n1C1CC1)C(CO)O2 (stereo not drawn) [Compound 18, 1-cyclopropyl-5-(hydroxymethyl)-8,9-dimethoxy-2-oxo-5H-chromeno[4,3-b]pyridine-3-carboxylic acid]",20 to 100
8,"[2H]C([2H])([2H])Oc1cc2c(cc1OC)-c1c(cc(C(=O)O)c(=O)n1C1CC1)C(C(C)C)O2 (stereo not drawn) [Compound 20, 1-cyclopropyl-5-isopropyl-9-methoxy-2-oxo-8-(trideuteriomethoxy)-5H-chromeno[4,3-b]pyridine-3-carboxylic acid]",1 to 20
9,"COc1cc2c(cc1Cl)-c1c(cc(C(=O)O)c(=O)n1C1CC1)C(C1COC1)O2 (stereo not drawn) [Compound 21, 9-chloro-1-cyclopropyl-8-methoxy-5-(oxetan-3-yl)-2-oxo-5H-chromeno[4,3-b]pyridine-3-carboxylic acid]",1 to 20
10,"COCCCOc1cc2c(cc1Cl)-c1c(cc(C(=O)O)c(=O)n1C1CC(F)(F)C1)C(C(C)C)O2 (stereo not drawn) [Compound 23, 9-chloro-1-(3,3-difluorocyclobuty 1)-5-isopropyl-8-(3-methoxypropoxy) -2-oxo-5H-chromeno[4,3-b]pyridine-3-carboxylic acid]",1 to 20
11,"[2H]C1([2H])C(n2c3c(cc(C(=O)O)c2=O)C(C2(C)COC2)Oc2cc(OCCCOC)c(F)cc2-3)C1([2H])[2H] (stereo not drawn) [Compound 27, 9-fluoro-8-(3-methoxypropoxy) -5-(3-methyloxetan-3-yl)-2-oxo-1-(2,2,3,3-tetradeuteriocyclopropyl)-5H-chromeno[4,3-b]pyridine-3-carboxylic acid]",0.001 to 1
12,"COc1cc2c(cc1OCC1(C)COC1)OC(C(C)C)c1cc(C(=O)O)c(=O)n(C3CC3)c1-2 (stereo not drawn) [Compound 28, 1-cyclopropyl-5-isopropyl-9-methoxy-8-[(3-methyloxetan-3-yl)methoxy]-2-oxo-5H-chromeno[4,3-b]pyridine-3-carboxylic acid]",1 to 20
13,"COc1cc2c(cc1OCC1CN(C)C(=O)O1)OC(C(C)C)c1cc(C(=O)O)c(=O)n(C3CC3)c1-2 (stereo not drawn) [Compound 29, 1-cyclopropyl-5-isopropyl-9-methoxy-8-[(3-methyl-2-oxooxazolidin-5-yl)methoxy]-2-oxo-5H-chromeno[4,3-b]pyridine-3-carboxylic acid]",1 to 20
14,"COc1cc2c(cc1OCCCC#N)OC(C(C)C)c1cc(C(=O)O)c(=O)n(C3CC3)c1-2 (stereo not drawn) [Compound 30, 8-(3-cyanopropoxy)-1-cyclopropyl-5-isopropyl-9-methoxy-2-oxo-5H-chromeno[4,3-b]pyridine-3-carboxylic acid]",1 to 20
15,"COCCOc1cc2c(cc1OC)-c1c(cc(C(=O)O)c(=O)n1C1CC1)C(C(C)C)O2 (stereo not drawn) [Compound 31, 1-cyclopropyl-5-isopropyl-9-methoxy-8-(2-methoxyethoxy)-2-oxo-5H-chromeno[4,3-b]pyridine-3-carboxylic acid]",1 to 20
16,"COc1cc2c(cc1OCC1CN(S(C)(=O)=O)C1)OC(C(C)C)c1cc(C(=O)O)c(=O)n(C3CC3)c1-2 (stereo not drawn) [Compound 32, 1-cyclopropyl-5-isopropyl-9-methoxy-8-[(1-methylsulfonylazetidin-3-yl)methoxy]-2-oxo-5H-chromeno[4,3-b]pyridine-3-carboxylic acid]",1 to 20

# The next lines start with the values.
row,IC50 [nM],SMILES
1,0.001 to 1,"CC(C)C1Oc2cc(OCC3COC3)c(Cl)cc2-c2c1cc(C(=O)O)c(=O)n2C1CC1 (stereo not drawn) [Compound 5, 9-chloro-1-cyclopropyl-5-isopropyl-8-(oxetan-3-ylmethoxy)-2-oxo-5H-chromeno[4,3-b]pyridine-3-carboxylic acid]"
2,0.001 to 1,"CC(C)C1Oc2cc(OCC3COCCO3)c(Cl)cc2-c2c1cc(C(=O)O)c(=O)n2C1CC1 (stereo not drawn) [Compound 7, 9-chloro-1-cyclopropyl-8-(1,4-dioxan-2-ylmethoxy)-5-isopropyl-2-oxo-5H-chromeno[4,3-b]pyridine-3-carboxylic acid]"
3,0.001 to 1,"CCC1Oc2cc(OCCCOC)c(Cl)cc2-c2c1cc(C(=O)O)c(=O)n2C1CC1 (stereo not drawn) [Compound 11, 9-chloro-1-cyclopropyl-5-ethyl-8-(3-methoxypropoxy) -2-oxo-5H-chromeno[4,3-b]pyridine-3-carboxylic acid]"
4,0.001 to 1,"COCCCOc1cc2c(cc1Cl)-c1c(cc(C(=O)O)c(=O)n1C1CC1)C(C1COC1)O2 (stereo not drawn) [Compound 13, 9-chloro-1-cyclopropyl-8-(3-methoxypropoxy) -5-(oxetan-3-yl)-2-oxo-5H-chromeno[4,3-b] pyridine-3-carboxylic acid]"
5,0.001 to 1,"COCCCOc1cc2c(cc1Cl)-c1c(cc(C(=O)O)c(=O)n1C1CC1)C(C1(C#N)CC1)O2 (stereo not drawn) [Compound 22, 9-chloro-5-(1-cyanocyclopropyl)-1-cyclopropyl-8-(3-methoxypropoxy) -2-oxo-5H-chromeno[4,3-b]pyridine-3-carboxylic acid]"
6,0.001 to 1,"COCCCOc1cc2c(cc1C#N)-c1c(cc(C(=O)O)c(=O)n1C1CC1)C(C(C)C)O2 (stereo not drawn) [Compound 24, 9-cyano-1-cyclopropyl-5-isopropyl-8-(3-methoxypropoxy) -2-oxo-5H-chromeno[4,3-b]pyridine-3-carboxylic acid]"
7,0.001 to 1,"COCCOc1cc2c(cc1Cl)-c1c(cc(C(=O)O)c(=O)n1C1CC1)C(C1(C)COC1)O2 (stereo not drawn) [Compound 25, 9-chloro-1-cyclopropyl-8-(2-methoxyethoxy)-5-(3-methyloxetan-3-yl)-2-oxo-5H-chromeno [4,3-b]pyridine-3-carboxylic acid]"
8,0.001 to 1,"COCCCOc1cc2c(cc1F)-c1c(cc(C(=O)O)c(=O)n1C1CCC1)C(C1(C)COC1)O2 (stereo not drawn) [Compound 26, 1-cyclobutyl-9-fluoro-8-(3-methoxypropoxy) -5-(3-methyloxetan-3-yl)-2-oxo-5H-chromeno[4,3-b]pyridine-3-carboxylic acid]"
